Reference: PMC11171933, “Rapid Determination of Kinetic Constants for Slow-Binding Inhibitors and Inactivators of Human Histone Deacetylase 8” (International Journal of Molecular Sciences, 2024)
Entries after “also recorded” stand apart in the source; their conditions may differ. Where two headings read alike, the source gives them in different places. One block for each molecule: values may come before it.

Legend:
CYP3A4 [1] = molecular target: T1, CYP3A4 (Homo sapiens, UniProt P08684); test: Inactivation kinetics of CYP3A4 (literature data and reanalysis)
Procedure: (§1) Firstly, the remaining enzyme activities were extracted from the data sets for all inactivator concentrations and plotted against the respective preincubation times used. Secondly, the resulting decay curves for different inactivator concentrations were fitted to mono-exponential functions, thus yielding observed inactivation rates kobs for all inactivator concentrations.

human HDAC8 = molecular target: T2, human HDAC8 (Homo sapiens, UniProt Q9BY41); test: Time-dependent fluorometric HDAC8 enzyme activity assay (dose-response curves after different pre-incubation times); conditions: for Binding / inhibition mechanism classification: from time-dependent dose-response curves and kobs vs [I] plot; for kinact: read-out: kinact (min^−1); for kinact/KI: read-out: kinact/KI (M^−1s^−1)
T2 sequence (Q9BY41 1-377): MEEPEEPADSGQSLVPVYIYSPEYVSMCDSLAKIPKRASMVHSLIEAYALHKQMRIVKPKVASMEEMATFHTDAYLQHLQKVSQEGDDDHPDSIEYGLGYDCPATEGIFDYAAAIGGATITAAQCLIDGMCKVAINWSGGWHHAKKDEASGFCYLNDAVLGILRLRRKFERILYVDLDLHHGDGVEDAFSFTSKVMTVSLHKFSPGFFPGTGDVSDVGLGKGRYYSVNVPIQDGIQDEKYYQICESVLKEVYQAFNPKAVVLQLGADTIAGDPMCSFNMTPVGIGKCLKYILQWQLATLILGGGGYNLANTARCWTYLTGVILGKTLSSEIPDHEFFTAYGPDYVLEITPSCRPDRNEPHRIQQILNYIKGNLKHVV
Procedure: HDAC8 activity was determined using a fluorometric assay, as previously described [44]. […] The enzyme reaction was initiated by adding 20 μM of the substrate Boc-Lys(TFA)-AMC (Bachem, Bubendorf, Switzerland). […] The measurements were carried out using a fluorescence microplate reader (PHERAstar FS, BMG LABTECH, Ortenberg, Germany) with fluorescence excitation at 360 nm and emission at 460 nm. IC50 values were calculated using GraphPad Prism 9 by generating dose–response curves and fitting them to a 4-parameter fit model [50]. The results represent the mean ± SD of three independent experiments.
The binding constant Ki for the 1-step binding mechanism in Equation (5) was calculated as follows:(5) Ki=koff/kon
A plot of kobs versus inhibitor or inactivator concentration ([I]) allows distinguishing between 1-step or 2-step behavior: a straight line indicates 1-step, and a saturation curve indicates a 2-step mechanism. Kinetic parameters were obtained from fitting kobs vs. [I] data to the following functions for the indicated mechanism:
Reversible 1-step binding (see Equation (1)):(8) kobs=kon[I]+koff where kon and koff are association and dissociation rate constants, respectively.
Reversible 2-step binding (see Equation (2)):(9) kobs=k−r+kr/1+IC50/[I] where kr and k−r are forward and reverse isomerization rate constants of the second step.
Irreversible 1-step inactivation (see Equation (3)):(10) kobs=kinact/KI[I] where kinact is the inactivation rate, KI is [I], and kinact is the half-maximum.
Irreversible 2-step inactivation (see Equation (4)):(11) kobs=kinact[I]/KI +[I]

CYP2C8 [2] = molecular target: T3, CYP2C8 (Homo sapiens, UniProt P10632); test: Inactivation kinetics of CYP2C8 (literature data and reanalysis)
T3 sequence (P10632 1-490): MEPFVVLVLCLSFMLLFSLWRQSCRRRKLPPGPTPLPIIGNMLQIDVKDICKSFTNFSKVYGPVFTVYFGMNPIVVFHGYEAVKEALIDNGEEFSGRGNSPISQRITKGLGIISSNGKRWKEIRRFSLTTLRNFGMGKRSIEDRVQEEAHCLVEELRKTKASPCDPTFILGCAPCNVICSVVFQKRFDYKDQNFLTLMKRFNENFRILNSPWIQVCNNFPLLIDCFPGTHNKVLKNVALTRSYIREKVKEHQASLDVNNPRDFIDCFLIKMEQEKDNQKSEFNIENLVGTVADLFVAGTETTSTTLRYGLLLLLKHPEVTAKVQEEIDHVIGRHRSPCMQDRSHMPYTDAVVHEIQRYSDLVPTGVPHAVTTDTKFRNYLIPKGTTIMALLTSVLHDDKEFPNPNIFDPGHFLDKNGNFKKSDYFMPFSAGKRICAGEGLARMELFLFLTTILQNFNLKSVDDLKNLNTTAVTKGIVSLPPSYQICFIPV
Procedure: as §1

CYP3A4 [3] = molecular target: T1, CYP3A4; conditions: CYP3A4 inactivation ref 38, cited from earlier work
[4] = parameters: method as in PMID 5970483; conditions: pH 8 ref 48; cited from earlier work
[5] = parameters: method as in PMID 5970483; conditions: pH of 7.0 ref 48; cited from earlier work
CYP2C8 [6] = molecular target: T3, CYP2C8; conditions: CYP2C8 inactivation ref 36, cited from earlier work
HDAC8 [7] = conditions: read-out: IC50 (µM) (Lit.), cited from earlier work
HDAC8 [8] = molecular target: HDAC8; parameters: method as in PMID 24882269; conditions: binding affinity to HDAC8 ref 41; cited from earlier work
HIV protease = tested on: HIV protease; parameters: method as in PMID 17928344; conditions: HIV protease ref 18; cited from earlier work

T1 sequence (P08684 2-503): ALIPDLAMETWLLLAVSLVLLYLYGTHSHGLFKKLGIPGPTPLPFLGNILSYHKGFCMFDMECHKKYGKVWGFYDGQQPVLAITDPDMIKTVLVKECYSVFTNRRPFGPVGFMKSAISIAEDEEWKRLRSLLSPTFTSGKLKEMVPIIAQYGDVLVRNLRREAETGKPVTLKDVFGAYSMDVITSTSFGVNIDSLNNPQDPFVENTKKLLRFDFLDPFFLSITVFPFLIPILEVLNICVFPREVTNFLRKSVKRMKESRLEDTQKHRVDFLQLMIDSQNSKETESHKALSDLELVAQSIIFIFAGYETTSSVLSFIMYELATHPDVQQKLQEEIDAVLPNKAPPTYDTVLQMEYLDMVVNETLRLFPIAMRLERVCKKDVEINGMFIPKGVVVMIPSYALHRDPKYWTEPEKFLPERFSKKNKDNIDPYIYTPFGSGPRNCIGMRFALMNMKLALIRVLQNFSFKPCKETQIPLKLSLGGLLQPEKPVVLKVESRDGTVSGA

Ki (CYP3A4 [1]; human): 12 ± 5 µM
kinact (CYP3A4 [1]; human): 0.0065 s⁻¹
Structure (SMILES): CC(C)=CCC/C(C)=C/COc1c2ccoc2cc2oc(=O)ccc12 [Bergamottin]

IC50 (human HDAC8): 80 ± 30 nM
kinact (human HDAC8): > 2 min⁻¹
Structure (SMILES): O=c1c2ccccc2[se]n1-c1ccccc1 [Ebselen, reference compound]
Binding / inhibition mechanism classification (human HDAC8): rapidly inactivated HDAC8; also recorded: fast covalent inactivators

Ki (CYP3A4 [1]; human): 5.4 ± 2.5 µM
Structure (SMILES): C#C[C@]1(O)CC[C@H]2[C@@H]3CCc4cc(O)ccc4[C@H]3CC[C@@]21C [Ethynyl-estradiol, reference compound]

Structure (SMILES): NNC(=O)c1ccncc1 [Isoniazid]
Ki (CYP2C8 [2]; human): 280 ± 40 µM
kinact (CYP2C8 [2]; human): 0.0006 s⁻¹

Structure (SMILES): CC/C(=C(\c1ccccc1)c1ccc(OCCNC)cc1)c1ccccc1 [N-desmethy-ltamoxifen]
kinact (min^−1), Literature (CYP3A4 [3]): 0.08 min⁻¹
Ki (CYP3A4 [3]; read-out: KI (µM), Literature): 2.6 µM
kinact (min^−1), Reanalysis (CYP3A4 [1]; CYP3A4, reanalysis of literature data (refs 37-39) with two-step fit of kobs vs [I]): 0.083 ± 0.007 min⁻¹
Ki (CYP3A4 [1]; read-out: KI (µM), Reanalysis, CYP3A4, reanalysis of literature data (refs 37-39) with two-step fit of kobs vs [I]): 2.5 ± 1 µM

Structure (SMILES): CCN1C(=O)C=CC1=O [NEM, N-ethylmaleimide, reference compound]
second-order rate constant for N-ethylmaleimide reaction with cysteine [4]: 15,300 M^−1s^−1
rate constant, times lower than that of cysteine [5]: more than 100 times
IC50 (human HDAC8): 700 to 42000 nM
Binding / inhibition mechanism classification (human HDAC8): unspecific one-step affinity labeling; also recorded: slow inactivation behavior
kinact/KI (human HDAC8): 133 ± 3 M⁻¹ s⁻¹

Structure (SMILES): CNCCC=C1c2ccccc2CCc2ccccc21 [Nortriptyine]
kinact (min^−1), Literature (CYP2C8 [6]): 0.036 min⁻¹
Ki (CYP2C8 [6]; read-out: KI (µM), Literature): 49.9 µM
kinact (min^−1), Reanalysis (CYP2C8 [2]; CYP2C8, reanalysis of literature data (ref 36) with two-step fit of kobs vs [I]): 0.044 ± 0.003 min⁻¹
Ki (CYP2C8 [2]; read-out: KI (µM), Reanalysis, CYP2C8, reanalysis of literature data (ref 36) with two-step fit of kobs vs [I]): 66 ± 12 µM

Structure (SMILES): COc1ccc(Cn2ccc3ccc(C(=O)NO)cc32)cc1 [PCI-34051, reference compound]
Binding / inhibition mechanism classification (human HDAC8): fast-reversible inhibitors

Structure (SMILES): NNCCc1ccccc1 [Phenelzine]
Ki (CYP2C8 [2]; human): 0.84 ± 0.24 µM
kinact (CYP2C8 [2]; human): 0.0035 s⁻¹

Structure (SMILES): O=C(CCCCCCC(=O)Nc1ccccc1)NO [SAHA, suberoylanilide hydroxamic acid, reference compound]
Binding / inhibition mechanism classification (human HDAC8): fast-reversible inhibitors

Structure (SMILES): O=C(CCCCCCC(=O)C(F)(F)F)Nc1ccccc1 [SATFMK]
IC50 (HDAC8 [7]; literature value ref 42): 0.021 µM
Kd (HDAC8 [8]): 5.6 nM

IC50 (human HDAC8): 4200 ± 1100 nM
Ki (human HDAC8): 1300 nM
Structure (SMILES): COC(=O)c1ccc(/C=C(\C#N)C(=O)C(F)(F)F)cc1 [SVE04]
Binding / inhibition mechanism classification (human HDAC8): fast reversible HDAC8 inhibitors; also recorded: fast reversible binding

IC50 (human HDAC8): 2600 ± 400 nM
Ki (human HDAC8): 800 nM
Structure (SMILES): COc1ccc(CC(C#N)C(=O)O)cc1 (centres unmarked) [SVE27]
Binding / inhibition mechanism classification (human HDAC8): fast reversible HDAC8 inhibitors; also recorded: fast reversible binding

IC50 (human HDAC8): 400 to 4000 nM
Ki (human HDAC8): 5900 ± 800 nM
kinact (human HDAC8): 1 min⁻¹
kinact/KI (human HDAC8): 2820 M⁻¹ s⁻¹
Structure (SMILES): Cc1cc(C)cc(CSc2nc(Cl)ns2)c1 [TJ-19-24]
Binding / inhibition mechanism classification (human HDAC8): slow two-step inactivators or reversible inhibitors, with a very low reverse isomerization rate; also recorded: slow covalent inactivator; also recorded: slow two-step inactivation

IC50 (human HDAC8): 300 to 3000 nM
Ki (human HDAC8): 12000 ± 3000 nM
kinact (human HDAC8): 1.8 min⁻¹
kinact/KI (human HDAC8): 2500 M⁻¹ s⁻¹
Structure (SMILES): Cc1cc(C)cc(CS(=O)(=O)c2nc(Cl)ns2)c1 [TJ-19-28]
Binding / inhibition mechanism classification (human HDAC8): two-step inactivation mechanism; also recorded: irreversible inactivation mechanism

Structure (SMILES): CC(C)CN(C[C@@H](O)[C@H](Cc1ccccc1)NC(=O)O[C@H]1CO[C@H]2OCC[C@H]21)S(=O)(=O)c1ccc(N)cc1 [darunavir]
residence time (RT) (HIV protease): 247 h

Structure (SMILES): CC(C)(C)NC(=O)[C@@H]1CN(Cc2cccnc2)CCN1C[C@@H](O)C[C@@H](Cc1ccccc1)C(=O)N[C@H]1c2ccccc2C[C@H]1O [indinavir]
residence time (RT) (HIV protease): 0.3 h
